Experimental data as given in ChEMBL document CHEMBL5528054, “Novel Cocrystal Structures of Peptide Antagonists Bound to the Human Melanocortin Receptor 4 Unveil Unexplored Grounds for Structure-Based Drug Design” (J Med Chem, 2024).

Legend:
[1] = biological target: T1, Melanocyte-stimulating hormone receptor (Homo sapiens, UniProt Q01726); assay: Partial agonist activity at C-terminal HA-tagged human MC1-R stably expressed in HEK293 cells co-expressing GScAMP22P cAMP reporter assessed as inhibition of alpha-MSH induced cAMP production by cell based luminescence assay; assay type: functional
Target sequence in this assay (Q01726 whole entry): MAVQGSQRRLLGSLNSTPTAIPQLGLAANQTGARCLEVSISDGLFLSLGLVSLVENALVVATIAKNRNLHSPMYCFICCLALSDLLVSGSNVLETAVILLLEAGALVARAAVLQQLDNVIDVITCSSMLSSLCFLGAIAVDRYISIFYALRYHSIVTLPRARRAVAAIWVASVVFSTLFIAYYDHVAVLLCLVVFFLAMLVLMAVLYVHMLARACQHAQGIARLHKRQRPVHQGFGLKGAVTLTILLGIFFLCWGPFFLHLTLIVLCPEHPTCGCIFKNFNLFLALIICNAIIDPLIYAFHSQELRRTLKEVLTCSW

[2] = biological target: T1, Melanocyte-stimulating hormone receptor; assay: Partial agonist activity at C-terminal HA-tagged human MC1-R stably expressed in HEK293 cells co-expressing GScAMP22P cAMP reporter assessed as inhibition of alpha-MSH induced cAMP production by cell based luminescence assay relative to control; assay type: functional; set-up: concentration or dose not given beside the values; conditions: filed as partial agonist, concentration not given here
Target sequence in this assay (Q01726 whole entry, looked up): as the sequence (Q01726 whole entry) above

[3] = biological target: Melanocortin receptor 4 (Homo sapiens, UniProt P32245); assay: Antagonist activity at C-terminal HA-tagged human MC4-R stably expressed in HEK293 cells co-expressing GScAMP22P cAMP reporter assessed as inhibition of alpha-MSH induced cAMP production by cell based luminescence assay; assay type: functional
[4] = biological target: Melanocortin receptor 3 (Homo sapiens, UniProt P41968); assay: Antagonist activity at C-terminal HA-tagged human MC3-R stably expressed in HEK293 cells co-expressing GScAMP22P cAMP reporter assessed as inhibition of alpha-MSH induced cAMP production by cell based luminescence assay; assay type: functional; conditions: read-out: IC50
[5] = test system: HEK293; assay: (§1) Selectivity ratio of IC50 for C-terminal HA-tagged human MC4-R stably expressed in HEK293 cells co-expressing GScAMP22P cAMP reporter assessed as inhibition of alpha-MSH induced cAMP production to IC50 for C-terminal HA-tagged human MC1-R stably expressed in HEK293 cells co-expressing GScAMP22P cAMP reporter assessed as inhibition of alpha-MSH induced cAMP production; assay type: cell-based
[6] = test system: HEK293; assay: as §1, with “MC3-R” for “MC1-R”; assay type: cell-based

Melanocortin receptor 3, sequence (P41968 whole entry): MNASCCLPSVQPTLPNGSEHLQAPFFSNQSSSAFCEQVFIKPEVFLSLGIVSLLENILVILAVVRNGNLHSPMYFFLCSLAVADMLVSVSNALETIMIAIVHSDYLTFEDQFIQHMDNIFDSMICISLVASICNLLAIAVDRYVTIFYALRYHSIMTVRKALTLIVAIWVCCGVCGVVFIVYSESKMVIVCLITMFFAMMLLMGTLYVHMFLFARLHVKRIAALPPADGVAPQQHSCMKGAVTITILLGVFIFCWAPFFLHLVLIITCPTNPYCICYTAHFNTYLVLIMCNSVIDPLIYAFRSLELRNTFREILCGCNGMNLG
Melanocortin receptor 4, sequence (P32245 whole entry): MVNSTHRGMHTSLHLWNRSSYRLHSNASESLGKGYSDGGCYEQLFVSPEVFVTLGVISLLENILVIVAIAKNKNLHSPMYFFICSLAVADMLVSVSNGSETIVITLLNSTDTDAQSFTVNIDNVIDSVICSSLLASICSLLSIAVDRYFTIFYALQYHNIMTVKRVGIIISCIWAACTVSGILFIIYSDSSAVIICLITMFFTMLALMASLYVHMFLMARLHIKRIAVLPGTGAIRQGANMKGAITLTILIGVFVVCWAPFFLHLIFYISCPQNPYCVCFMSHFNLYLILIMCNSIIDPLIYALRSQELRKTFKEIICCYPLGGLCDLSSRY

Row | SMILES | IC50 [1] | inhibition [2] | other results
1 | CCCC[C@H](NC(C)=O)C(=O)N[C@H]1CC(=O)NCCCC[C@@H](C(N)=O)NC(=O)CNC(=O)[C@H](Cc2c[nH]c3ccccc23)NC(=O)[C@H](CCCNC(=N)N)NC(=O)[C@@H](Cc2ccc3ccccc3c2)NC(=O)[C@@H]2C[C@H](NC(=O)CCNC(=N)N)CN2C1=O | 0.12 nM | 78.6% | –
2 | CCCC[C@H](NC(C)=O)C(=O)N[C@H]1CC(=O)NCCCC[C@@H](C(N)=O)NC(=O)[C@H](CCCCNC(=N)NCCN)NC(=O)[C@H](Cc2c[nH]c3ccccc23)NC(=O)[C@H](CCCNC(=N)N)NC(=O)[C@@H](Cc2ccc3ccccc3c2)NC(=O)[C@@H]2CCCN2C1=O | 15.4 nM | 85.3% | –
3 | CCCC[C@H](NC(C)=O)C(=O)N[C@H]1CC(=O)NCCCC[C@@H](C(N)=O)NC(=O)CNC(=O)[C@H](Cc2c[nH]c3ccccc23)NC(=O)[C@H](CCCNC(=N)N)NC(=O)[C@@H](Cc2ccc3ccccc3c2)NC(=O)[C@@H]2C[C@H](NC(=O)CC3CCCCC3)CN2C1=O | 10.5 nM | 93.7% | IC50 ([3]; read-out: IC50): 6.9 nM; IC50 ([3]; read-out: pIC50 (converted)): 5.89 nM; IC50 [4]: 9.3 nM; Ratio IC50 [5]: 1.8; Ratio IC50 [6]: 1.6
4 | CCCCC(NC(C)=O)C(=O)N[C@H]1CC(=O)NCCCC[C@@H](C(N)=O)NC(=O)CNC(=O)[C@H](Cc2c[nH]c3ccccc23)NC(=O)[C@H](CCCNC(=N)N)NC(=O)[C@@H](Cc2ccc3ccccc3c2)NC(=O)[C@@H]2C[C@@H](n3cc(CCCNC(=N)N)nn3)CN2C1=O (stereo partly specified) | – | 84.7% | Ratio IC50 [5]: 0.1; Ratio IC50 [6]: 5.8
5 | CCCC[C@H](NC(C)=O)C(=O)N[C@H]1CC(=O)NCCCC[C@@H](C(N)=O)NC(=O)[C@H](CCCCNC(=N)N)NC(=O)[C@H](Cc2c[nH]c3ccccc23)NC(=O)[C@H](CCCNC(=N)N)NC(=O)[C@@H](Cc2ccc3ccccc3c2)NC(=O)[C@@H]2CCCN2C1=O | 816 nM | 90.6% | –
6 | CCCC[C@H](NC(C)=O)C(=O)N[C@H]1CC(=O)NCCCC[C@@H](C(N)=O)NC(=O)CNC(=O)[C@H](Cc2c[nH]c3ccccc23)NC(=O)[C@H](CCCNC(=N)N)NC(=O)[C@@H](Cc2ccc3ccccc3c2)NC(=O)[C@@H]2C[C@H](NC(=O)c3ccccc3)CN2C1=O | 22.5 nM | 90.9% | –
7 | CCCC[C@H](NC(C)=O)C(=O)N[C@H]1CC(=O)NCCCC[C@@H](C(N)=O)NC(=O)CNC(=O)[C@H](Cc2c[nH]c3ccccc23)NC(=O)[C@H](CCCNC(=N)N)NC(=O)[C@@H](Cc2ccc3ccccc3c2)NC(=O)[C@@H]2C[C@@H](n3cc(-c4ccccn4)nn3)CN2C1=O | – | – | IC50 ([3]; hek293, read-out: IC50): 4.01 nM; IC50 ([4]; hek293): 6.35 nM; IC50 ([1]; hek293): 213 nM
8 | CCCC[C@H](NC(C)=O)C(=O)N[C@H]1CC(=O)NCCCC[C@@H](C(N)=O)NC(=O)[C@H](CCCCNC(=N)NCc2ccccc2)NC(=O)[C@H](Cc2c[nH]c3ccccc23)NC(=O)[C@H](CCCNC(=N)N)NC(=O)[C@@H](Cc2ccc3ccccc3c2)NC(=O)[C@@H]2CCCN2C1=O | 92 nM | 89.6% | –
9 | CCCC[C@H](NC(C)=O)C(=O)N[C@H]1CC(=O)NCCCC[C@@H](C(N)=O)NC(=O)[C@H](CCCN)NC(=O)[C@H](Cc2c[nH]c3ccccc23)NC(=O)[C@H](CCCNC(=N)N)NC(=O)[C@@H](Cc2ccc3ccccc3c2)NC(=O)[C@@H]2CCCN2C1=O | 363 nM | 83.8% | –
10 | CCCCCC(=O)N[C@H]1C[C@H]2C(=O)N[C@H](Cc3ccc4ccccc4c3)C(=O)N[C@@H](CCCNC(=N)N)C(=O)N[C@@H](Cc3c[nH]c4ccccc34)C(=O)NCC(=O)N[C@H](C(N)=O)CCCCNC(=O)C[C@H](NC(=O)[C@H](CCCC)NC(C)=O)C(=O)N2C1 | 10.1 nM | – | –
11 | CCCC[C@H](NC(C)=O)C(=O)N[C@H]1CC(=O)NCCCC[C@@H](C(N)=O)NC(=O)CNC(=O)[C@H](Cc2c[nH]c3ccccc23)NC(=O)[C@H](CCCNC(=N)N)NC(=O)[C@@H](Cc2ccc3ccccc3c2)NC(=O)[C@@H]2C[C@@H](n3cc(CCCNC(=N)N)nn3)CN2C1=O | – | – | IC50 ([3]; hek293, read-out: IC50): 3.26 nM; IC50 ([4]; hek293): 18.8 nM; IC50 ([1]; hek293): 0.49 nM
12 | CCCC[C@H](NC(C)=O)C(=O)N[C@H]1CC(=O)NCCCC[C@@H](C(N)=O)NC(=O)CNC(=O)[C@H](Cc2c[nH]c3ccccc23)NC(=O)[C@H](CCCNC(=N)N)NC(=O)[C@@H](Cc2ccc3ccccc3c2)NC(=O)[C@@H]2C[C@@H](n3cc(C(C)(C)N)nn3)CN2C1=O | – | – | IC50 ([3]; hek293, read-out: IC50): 4.34 nM; IC50 ([4]; hek293): 72.4 nM; IC50 ([1]; hek293): 1.53 nM
13 | CCCC[C@H](NC(C)=O)C(=O)N[C@H]1CC(=O)NCCCC[C@@H](C(N)=O)NC(=O)CNC(=O)[C@H](Cc2c[nH]c3ccccc23)NC(=O)[C@H](CCCNC(=N)N)NC(=O)[C@@H](Cc2ccc3ccccc3c2)NC(=O)[C@@H]2C[C@H](n3cc(C4CCCCC4)nn3)CN2C1=O | 77.4 nM | 89.5% | IC50 [4]: 56.8 nM
14 | CC(=O)N[C@H](CCCNC(=N)N)C(=O)N[C@H]1CC(=O)NCCCC[C@@H](C(N)=O)NC(=O)[C@H](CCCNC(=N)N)NC(=O)[C@H](Cc2c[nH]c3ccccc23)NC(=O)[C@H](CCCNC(=N)N)NC(=O)[C@@H](Cc2ccc3ccccc3c2)NC(=O)[C@@H]2CCCN2C1=O | 1240 nM | 94.6% | –
15 | CCCC[C@H](NC(C)=O)C(=O)N[C@H]1CC(=O)NCCCC[C@@H](C(N)=O)NC(=O)[C@H](Cc2ccc(NC(=N)N)cc2)NC(=O)[C@H](Cc2c[nH]c3ccccc23)NC(=O)[C@H](CCCNC(=N)N)NC(=O)[C@@H](Cc2ccc3ccccc3c2)NC(=O)[C@@H]2CCCN2C1=O | 90 nM | 88.6% | –
16 | CCCC[C@H](NC(C)=O)C(=O)N[C@H]1CC(=O)NCCCC[C@@H](C(N)=O)NC(=O)CNC(=O)[C@H](Cc2c[nH]c3ccccc23)NC(=O)[C@H](CCCNC(=N)N)NC(=O)[C@@H](Cc2ccc3ccccc3c2)NC(=O)[C@@H]2C[C@H](NC(=O)Cc3ccccc3)CN2C1=O | 13.5 nM | 90.1% | –
17 | CC(=O)N[C@H](CCCN)C(=O)N[C@H]1CC(=O)NCCCC[C@@H](C(N)=O)NC(=O)[C@H](CCCNC(=N)N)NC(=O)[C@H](Cc2c[nH]c3ccccc23)NC(=O)[C@H](CCCNC(=N)N)NC(=O)[C@@H](Cc2ccc3ccccc3c2)NC(=O)[C@@H]2CCCN2C1=O | 3060 nM | 73.7% | –
18 | CCCC[C@H](NC(C)=O)C(=O)N[C@H]1CC(=O)NCCCC[C@@H](C(N)=O)NC(=O)[C@H](CCCCN)NC(=O)[C@H](Cc2c[nH]c3ccccc23)NC(=O)[C@H](CCCNC(=N)N)NC(=O)[C@@H](Cc2ccc3ccccc3c2)NC(=O)[C@@H]2CCCN2C1=O | 158 nM | 81.6% | –
19 | CCCC[C@H](NC(C)=O)C(=O)N[C@H]1CC(=O)NCCCC[C@@H](C(N)=O)NC(=O)[C@H](CCCCNC(=N)NCCC(=O)O)NC(=O)[C@H](Cc2c[nH]c3ccccc23)NC(=O)[C@H](CCCNC(=N)N)NC(=O)[C@@H](Cc2ccc3ccccc3c2)NC(=O)[C@@H]2CCCN2C1=O | 608 nM | 83.2% | –
20 | CCCC[C@H](NC(C)=O)C(=O)N[C@H]1CC(=O)NCCCC[C@@H](C(N)=O)NC(=O)[C@H](CCCNC(N)=O)NC(=O)[C@H](Cc2c[nH]c3ccccc23)NC(=O)[C@H](CCCNC(=N)N)NC(=O)[C@@H](Cc2ccc3ccccc3c2)NC(=O)[C@@H]2CCCN2C1=O | 575 nM | 91.2% | –
21 | CCCC[C@H](NC(C)=O)C(=O)N[C@H]1CC(=O)NCCCC[C@@H](C(N)=O)NC(=O)[C@H](CCCCNC(=N)NCCC)NC(=O)[C@H](Cc2c[nH]c3ccccc23)NC(=O)[C@H](CCCNC(=N)N)NC(=O)[C@@H](Cc2ccc3ccccc3c2)NC(=O)[C@@H]2CCCN2C1=O | 75 nM | 86.2% | –
22 | CCCCC(NC(C)=O)C(=O)N[C@H]1CC(=O)NCCCC[C@@H](C(N)=O)NC(=O)CNC(=O)[C@H](Cc2c[nH]c3ccccc23)NC(=O)[C@H](CCCNC(=N)N)NC(=O)[C@@H](Cc2ccc3ccccc3c2)NC(=O)[C@@H]2C[C@@H](n3cc(-c4ccccn4)nn3)CN2C1=O (stereo partly specified) | – | 88.4% | Ratio IC50 [5]: 53; Ratio IC50 [6]: 1.6
23 | CCCC[C@H](NC(C)=O)C(=O)N[C@H]1CC(=O)NCCCC[C@@H](C(N)=O)NC(=O)[C@H](CCCCNC(=N)N(CCC)CCC)NC(=O)[C@H](Cc2c[nH]c3ccccc23)NC(=O)[C@H](CCCNC(=N)N)NC(=O)[C@@H](Cc2ccc3ccccc3c2)NC(=O)[C@@H]2CCCN2C1=O | 175 nM | 88.7% | –
24 | CCCC[C@H](NC(C)=O)C(=O)N[C@H]1CC(=O)NCCCC[C@@H](C(N)=O)NC(=O)CNC(=O)[C@H](Cc2c[nH]c3ccccc23)NC(=O)[C@H](CCCNC(=N)N)NC(=O)[C@@H](Cc2ccc3ccccc3c2)NC(=O)[C@@H]2C[C@H](n3cc(CCNC(=N)N)nn3)CN2C1=O | 5.09 nM | 85.9% | –
25 | CCCC[C@H](NC(C)=O)C(=O)N[C@H]1CC(=O)NCCCC[C@@H](C(N)=O)NC(=O)CNC(=O)[C@H](Cc2c[nH]c3ccccc23)NC(=O)[C@H](CCCNC(=N)N)NC(=O)[C@@H](Cc2ccc3ccccc3c2)NC(=O)[C@@H]2C[C@@H](NC(=O)CCNC(=N)N)CN2C1=O | 0.08 nM | 76.4% | –
26 | CCCC[C@H](NC(C)=O)C(=O)N[C@H]1CC(=O)NCCCC[C@@H](C(N)=O)NC(=O)[C@H](Cc2c[nH]c3ccccc23)NC(=O)[C@H](CCCNC(=N)N)NC(=O)[C@@H](Cc2ccc3ccccc3c2)NC(=O)[C@H](Cc2c[nH]cn2)NC1=O | – | 76% | –
